Results on 21 compounds are retold here after patent US20100204265A1 (priority 2009, published 2010).

SMILES strings stand for the structures.

What is called EC50 is the concentration that produces a half-maximal response.

The subject of the first data set is ET (Huh-lucubineo-ET) cell line harboring I389luc-ubi-neo/NS3-3′/ET HCV replicon. Kind of data set: Replicon assay (HCV replicon, luciferase readout). The format is cell-based. The conditions noted are these: Hepatitis C virus. In a few lines: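 Compounds at 10-point 2-fold dilutions (overall 0.1 nM to […], 0.5% DMSO) were applied to ET cells carrying a luciferase-neo HCV replicon, seeded a day earlier. After 48-72 hours, luciferase-based % inhibition was fitted with a Hill equation for EC50, and parallel WST-1 readings gave TC50.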
For orientation: In antiviral work, replicon cells carry a viral genome segment that copies itself.
As for `CNC(=O)CNC(=O)Cc1cn2cc(-c3ccoc3)cc(C(F)(F)F)c2n1` [Compound 301, 2-(6-Furan-3-yl-8-trifluoromethyl-imidazo[1,2-a]pyridin-2-yl)-N-methylcarbamoylmethyl-acetamide], the EC50 is > 50 µM.
As for `CN(C)C(=O)CNC(=O)Cc1cn2cc(-c3ccoc3)cc(C(F)(F)F)c2n1` [Compound 302, N-Dimethylcarbamoylmethyl-2-(6-furan-3-yl-8-trifluoromethyl-imidazo[1,2-a]pyridin-2-yl)-acetamide], the EC50 is > 50 µM.
In the case of `NC(=O)[C@H](Cc1c[nH]c2ccccc12)NC(=O)Cc1cn2cc(-c3ccoc3)cc(C(F)(F)F)c2n1` [Compound 303, 2-[2-(6-Furan-3-yl-8-trifluoromethyl-imidazo[1,2-a]pyridin-2-yl)-acetylamino]-3-(1H-indol-3-yl)-propionamide], the EC50 is > 50 µM.
On the same count and under the same terms, the same measure for `COC(=O)C(C)NC(=O)Cc1cn2cc(-c3ccoc3)cc(C(F)(F)F)c2n1` (stereo not drawn) [Compound 304, 2-[2-(6-Furan-3-yl-8-trifluoromethyl-imidazo[1,2-a]pyridin-2-yl)-acetylamino]-propionic acid methyl ester]: > 50 µM.
For the compound `COC(=O)C(NC(=O)Cc1cn2cc(-c3ccoc3)cc(C(F)(F)F)c2n1)C(C)O` (stereo not drawn) [Compound 305, 2-[2-(6-Furan-3-yl-8-trifluoromethyl-imidazo[1,2-a]pyridin-2-yl)-acetylamino]-3-hydroxy-butyric acid methyl ester], the EC50 is > 50 µM.
Same read-out and setting: then `COC(=O)C(CC(C)C)NC(=O)Cc1cn2cc(-c3ccoc3)cc(C(F)(F)F)c2n1` (stereo not drawn) [Compound 306, 2-[2-(6-Furan-3-yl-8-trifluoromethyl-imidazo[1,2-a]pyridin-2-yl)-acetylamino]-4-methyl-pentanoic acid methyl ester], with > 50 µM.
Same read-out and setting: the same measure for `COC(=O)C1CCCN1C(=O)Cc1cn2cc(-c3ccoc3)cc(C(F)(F)F)c2n1` (stereo not drawn) [Compound 307, 1-[2-(6-Furan-3-yl-8-trifluoromethyl-imidazo[1,2-a]pyridin-2-yl)-acetyl]-pyrrolidine-2-carboxylic acid methyl ester]: > 50 µM; for `COC(=O)C(NC(=O)Cc1cn2cc(-c3ccoc3)cc(C(F)(F)F)c2n1)c1ccccc1` (stereo not drawn) [Compound 309, [2-(6-Furan-3-yl-8-trifluoromethyl-imidazo[1,2-a]pyridin-2-yl)-acetylamino]-phenyl-acetic acid methyl ester]: > 50 µM; for `COC(=O)C(NC(=O)Cc1cn2cc(-c3ccoc3)cc(C(F)(F)F)c2n1)C(C)C` (stereo not drawn) [Compound 310, 2-[2-(6-Furan-3-yl-8-trifluoromethyl-imidazo[1,2-a]pyridin-2-yl)-acetylamino]-3-methyl-butyric acid methyl ester]: > 50 µM.
`COC(=O)C(Cc1c[nH]c2ccccc12)NC(=O)Cc1cn2cc(-c3ccoc3)cc(C(F)(F)F)c2n1` (stereo not drawn) [Compound 311, 2-[2-(6-Furan-3-yl-8-trifluoromethyl-imidazol[1,2-a]pyridin-2-yl)-acetylamino]-3-(1H-indol-3-yl)-propionic acid methyl ester]: the EC50 is > 50 µM.
For `COC(=O)C(Cc1ccccc1)NC(=O)Cc1cn2cc(-c3ccoc3)cc(C(F)(F)F)c2n1` (stereo not drawn) [Compound 312, 2-[2-(6-Furan-3-yl-8-trifluoromethyl-imidazo[1,2-a]pyridin-2-yl)-acetylamino]-3-phenyl-propionic acid methyl ester], the EC50 was > 50 µM.
For the compound `NC(=O)[C@H]1CCCN1C(=O)Cc1cn2cc(-c3ccoc3)cc(C(F)(F)F)c2n1` [Compound 313, 1-[2-(6-Furan-3-yl-8-trifluoromethyl-imidazo[1,2-a]pyridin-2-yl)-acetyl]-pyrrolidine-2-carboxylic acid amide], the EC50 is > 50 µM.
In the case of `CN(C)C(=O)[C@H]1CCCN1C(=O)Cc1cn2cc(-c3ccoc3)cc(C(F)(F)F)c2n1` [Compound 314, 1-[2-(6-Furan-3-yl-8-trifluoromethyl-imidazo[1,2-a]pyridin-2-yl)-acetyl]-pyrrolidine-2-carboxylic acid dimethylamide], the EC50 was > 50 µM.
Still for that read-out and setting: then `CS(=O)(=O)NC1CCN(C(=O)c2nc3c(C(F)(F)F)cc(-c4ccoc4)cn3c2Cl)CC1` [Compound 322, N-[1-(3-Chloro-6-furan-3-yl-8-trifluoromethyl-imidazo[1,2-a]pyridine-2-carbonyl)-piperidin-4-yl]-methanesulfonamide], with 0.266 µM; and `CC(=O)NC1CCN(C(=O)c2nc3c(C(F)(F)F)cc(-c4ccoc4)cn3c2Cl)CC1` [Compound 323, N-[1-(3-Chloro-6-furan-3-yl-8-trifluoromethyl-imidazo[1,2-a]pyridine-2-carbonyl)-piperidin-4-yl]-acetamide], with 10.7 µM.
Turning to `O=C1CCCC2(CCN(C(=O)c3nc4c(C(F)(F)F)cc(-c5ccoc5)cn4c3Cl)CC2)N1` [Compound 324, 9-(3-Chloro-6-furan-3-yl-8-trifluoromethyl-imidazo[1,2-a]pyridine-2-carbonyl)-1,9-diaza-spiro[5.5]undecan-2-one], the EC50 is > 50 µM.
Same read-out and setting: then `CC(=O)N1CCCN(C(=O)c2nc3c(C(F)(F)F)cc(-c4ccoc4)cn3c2Cl)CC1` [Compound 325, 1-[4-(3-Chloro-6-furan-3-yl-8-trifluoromethyl-imidazo[1,2-a]pyridine-2-carbonyl)-[1,4]diazepan-1-yl]-ethanone], with > 50 µM.
`CS(=O)(=O)N1CCCN(C(=O)c2nc3c(C(F)(F)F)cc(-c4ccoc4)cn3c2Cl)CC1` [Compound 326, (3-Chloro-6-furan-3-yl-8-trifluoromethyl-imidazo[1,2-a]pyridin-2-yl)-(4-methanesulfonyl-[1,4]diazepan-1-yl)-methanone] had an EC50 of 11.4 µM.
`O=C1NC(=O)C2(CCN(C(=O)c3nc4c(C(F)(F)F)cc(-c5ccoc5)cn4c3Cl)CC2)N1` [Compound 330, 8-(3-Chloro-6-furan-3-yl-8-trifluoromethyl-imidazo[1,2-a]pyridine-2-carbonyl)-1,3,8-triaza-spiro[4.5]decane-2,4-dione]: the EC50 is > 50 µM.
Still for that read-out and setting: the same measure for `COC(=O)N1CCCN(C(=O)c2nc3c(C(F)(F)F)cc(-c4ccoc4)cn3c2Cl)CC1` [Compound 331, 4-(3-Chloro-6-furan-3-yl-8-trifluoromethyl-imidazo[1,2-a]pyridine-2-carbonyl)-[1,4]diazepane-1-carboxylic acid methyl ester]: 26.8 µM.

Test system in a further data set: not given
Assay: not given
The conditions noted are these: patients treated at currently recommended doses; cited from earlier work.
As for `NC(=O)c1ncn([C@@H]2O[C@H](CO)[C@@H](O)[C@H]2O)n1` [Ribavirin, 1-P-D-ribofuranosyl-1H-1,2,-4-triazole-3-carboxamide], the “significant hemolysis, share of patients” value is 10-20%.
